Reference: the supplement of paper PMC8967900

Experiments:
Assay in all cases: selective drug sensitivity score (sDSS, relative to normal bone marrow) (sDSS (score)); higher = more potent and effective on the cell line relative to normal bone marrow cells
Details in all cases: 72 h
[1] = test system: COG-LL-394h
[2] = test system: MN-60
[3] = test system: MOLT-16
[4] = test system: LC4-1
[5] = test system: 697
[6] = test system: P12-ICHIKAWA
[7] = test system: MOLT-4
[8] = test system: KARPAS-45
[9] = test system: ALL-SIL
[10] = test system: RPMI-8402
[11] = test system: NALL-1
[12] = test system: MHH-CALL-2
[13] = test system: KOPN-8
[14] = test system: PEER
[15] = test system: ALL-PO
[16] = test system: TMD5
[17] = test system: CCRF-CEM
[18] = test system: SEM cells
[19] = test system: MHH-CALL-4
[20] = test system: MOLT-14
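Further: ALL cell lines in 384-well plates, five doses spanning 10,000-fold, each plate scaled between vehicle and 100 µmol/L benzalkonium chloride controls, sDSS an adapted area-under-curve metric.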

| SMILES | selective drug sensitivity score [1] | selective drug sensitivity score [2] | selective drug sensitivity score [3] | selective drug sensitivity score [4] | selective drug sensitivity score [5] | selective drug sensitivity score [6] | selective drug sensitivity score [7] | selective drug sensitivity score [8] | selective drug sensitivity score [9] | selective drug sensitivity score [10] | selective drug sensitivity score [11] | selective drug sensitivity score [12] | selective drug sensitivity score [13] | selective drug sensitivity score [14] | selective drug sensitivity score [15] | selective drug sensitivity score [16] | selective drug sensitivity score [17] | selective drug sensitivity score [18] | selective drug sensitivity score [19] | selective drug sensitivity score [20] |
| --- | --- | --- | --- | --- | --- | --- | --- | --- | --- | --- | --- | --- | --- | --- | --- | --- | --- | --- | --- | --- |
| O=c1sn(-c2cccc3ccccc23)c(=O)n1Cc1ccccc1 [Tideglusib] (top concentration 3000 nM) | -0.3 | -0.3 | -0.3 | -0.3 | -0.3 | -0.3 | -0.3 | -0.3 | 3.7 | -0.3 | -0.3 | 0.5 | -0.3 | -0.3 | -0.3 | -0.3 | -0.3 | -0.3 | 0.9 | -0.3 |
| COc1cc2nccc(Oc3ccc(NC(=O)Nc4cc(C)on4)c(Cl)c3)c2cc1OC [Tivozanib] (top concentration 10000 nM) | 1.46 | 0.66 | 3.66 | 5.96 | 5.16 | 2.66 | 3.46 | 3.86 | 27 | 1.76 | -1.74 | -0.34 | 9.06 | 12.2 | 1.76 | 5.66 | 1.26 | 4.76 | -2.44 | 4.46 |
| Cc1cc(Nc2cc(N3CCN(C)CC3)nc(Sc3ccc(NC(=O)C4CC4)cc3)n2)n[nH]1 [Tozasertib] (top concentration 10000 nM) | 3.36 | -0.74 | 22.7 | 20.6 | 23.2 | 22.8 | 15.6 | 8.56 | 22.4 | 4.56 | 19.8 | 11 | 19.1 | 22.6 | 17.3 | 14.8 | 21.6 | 22.3 | 4.66 | 20.9 |
| CC1=C(/C=C/C(C)=C/C=C/C(C)=C/C(=O)O)C(C)(C)CCC1 [Tretinoin] (top concentration 10000 nM) | -2.4 | -2.4 | -2.4 | -2.4 | -1.1 | -2.4 | -2.4 | -1.8 | -2.4 | -2.4 | -2.4 | -1.7 | 0.4 | -2.4 | -2.3 | -2.4 | -2.3 | 0 | -2.4 | -2.4 |
| COC(=O)c1ccc2c(c1)[nH]c1ncnc(NCCCN3CCCCC3)c12 [UM729] (top concentration 10000 nM) | 4.34 | 1.04 | 0.94 | 1.54 | 1.64 | -0.06 | 2.04 | 2.34 | 1.44 | 2.34 | -0.06 | -0.06 | 2.84 | 1.84 | 2.54 | -0.06 | 3.84 | 2.14 | 0.44 | 3.94 |
| COc1cc2c(NC3CCN(C(C)C)CC3)nc(N3CCC(F)(F)CC3)nc2cc1OCCCN1CCCC1 [UNC0642] (top concentration 10000 nM) | 2.76 | -3.74 | -2.94 | -1.14 | 0.76 | -0.14 | -3.44 | 3.56 | -0.04 | -0.74 | -0.74 | 0.96 | -0.74 | -0.74 | 2.96 | -0.84 | -0.54 | -0.14 | 1.46 | -1.24 |
| O=C(c1ccc(C(=O)N2CCC(N3CCCC3)CC2)c(Nc2ccccc2)c1)N1CCC(N2CCCC2)CC1 [UNC1215] (top concentration 10000 nM) | 0 | 0 | 0 | 0 | 0 | 0 | 0 | 0 | 0.4 | 0 | 0 | 0 | 0 | 0 | 0 | 0 | 0 | 0 | 0 | 0 |
| CCCC(CCC)C(=O)O [Valproic_acid] (top concentration 1000000 nM) | 0 | 0 | 0 | 0 | 0 | 0 | 0 | 0 | 0 | 0 | 0 | 0 | 0 | 0 | 0 | 0 | 0 | 0 | 0 | 0 |
| Clc1ccc(Nc2nnc(Cc3ccncc3)c3ccccc23)cc1 [Vatalanib] (top concentration 10000 nM) | 0 | 0.1 | 0 | 0 | 0 | 0 | 0 | 0 | 0.1 | 0 | 0 | 0.1 | 0 | 0.7 | 0 | 0 | 0 | 0 | 0.1 | 0 |
| CCCS(=O)(=O)Nc1ccc(F)c(C(=O)c2c[nH]c3ncc(-c4ccc(Cl)cc4)cc23)c1F [Vemurafenib] (top concentration 10000 nM) | -1.14 | -1.14 | 3.76 | 3.56 | 5.16 | 4.16 | 2.26 | 4.16 | 3.06 | 2.06 | -0.34 | 3.56 | 6.56 | 2.56 | 2.46 | 1.26 | 3.46 | 3.26 | -0.94 | 2.66 |
